Converted amounts (≈) assume the structure as drawn. Where two headings read alike, the source gives them in different places.
Experiments:
[1] = UV-measured solubility of 5-HTP and carbidopa; format: physicochemical
Protocol: The individual solubility of 5-HTP and carbidopa was assessed and compared to the data in the literature.
Table 2. Solubility results

[2] = Second wave of solubility testing with acidified vehicles and combinations; format: physicochemical; conditions: 40% (w/v) HP-3-cyclodextrin + 38.4 mg/mL citric acid, pH2.0, compared to similar solution containing only 20% (w/v) HP-3-cyclodextrin
Protocol: Based on the outcome of these solubility tests, a second wave of solubility testing was performed, with acidified vehicles and combinations thereof.
The highest solubility was obtained in 40% (w/v) HP-3-cyclodextrin + 38.4 mg/mL citric acid, pH2.0, for both APIs (Active Pharmaceutical Ingredients). The marginal increase in solubility in this vehicle, compared to similar solution containing only 20% (w/v) HP-3-cyclodextrin is only -20% for 5-HTP and -40% for carbidopa. Therefore, and since dosing of HP-3-cyclodextrin is limited to about 8 - 16 g/day (for max. 14 days, short-term Phase I studies), it was foreseen to use the vehicle containing only 20% HP-b-cyclodextrin as the first choice for dosing safety reasons, i.e.: • for a 600 mg 5-HTP/60 mg carbidopa dose with a 30 mg/mL 5-HTP/3 mg/mL carbidopa solution in solvent A (40% HP-β-CD), 20 mL solution is required, corresponding with an intake of 8 g HP-β-CD, and; • for a 600 mg 5-HTP/60 mg carbidopa dose with a 30 mg/mL 5-HTP/3 mg/mL carbidopa solution in solvent B (20% HP-β-CD), 20 mL solution is required, corresponding with an intake of only 4 g HP-β-CD.

[3] = Screening stress test study on separate reference solutions and a mix solution; format: physicochemical
Protocol: Stress studies were performed on the separated reference solutions and a mix solution under heat (60°C for 24 h), and under acidic, basic, or oxidative (H2O2) conditions, and ICH light (700 W/m^2 for 8 h) conditions.

[4] = cited from earlier work
[5] = 0.1N HCl, simulated gastric fluid, 0.1N HCI
[6] = 5% Soluplus in water, aqueous with cosolvent or surfactant or cyclodextrin
[7] = 10% w/v M-β-cyclodextrin in water (Kleptose crysmeb), aqueous with cosolvent or surfactant or cyclodextrin
[8] = 20% w/v HP-β-cyclodextrin in water (Kleptose), aqueous with cosolvent or surfactant or cyclodextrin, 20% w/v HP-β-cydodextrin in water (Kleptose)
[9] = Ethanol, organic solvent or mixture
[10] = Kolliphor RH40 (5% in water), aqueous with cosolvent or surfactant or cyclodextrin
[11] = PEG400, organic solvent or mixture
[12] = Polysorbate 20 (5% in water), aqueous with cosolvent or surfactant or cyclodextrin
[13] = Propylene glycol, organic solvent or mixture
[14] = Sepiclear (5% in water), aqueous with cosolvent or surfactant or cyclodextrin
[15] = Solutol HS15 (5% in water), aqueous with cosolvent or surfactant or cyclodextrin
[16] = Transcutol HP, organic solvent or mixture
[17] = oil or lipid, Labrafac lipophile, accurate measurement not possible due to diverging spectrum
[18] = oil or lipid, Sunflower oil, accurate measurement not possible due to diverging spectrum
[19] = pH 5, aqueous buffer, Phosphate buffer, pH5
[20] = pH 6.8, aqueous buffer, Phosphate buffer, pH6.8
[21] = pH 9, aqueous buffer, Phosphate buffer, pH9
[22] = separate solution, ICH light (700 W/m^2 for 8 h)
[23] = separate solution, acidic conditions, immediate, no further degradation after 24 h
[24] = separate solution, basic medium, after 24 h
[25] = separate solution, heat (60°C for 24 h)
[26] = separate solution, oxidative (H2O2) stress, T0 and T24h

Structure (SMILES) | solubility [1, 5] [µg/mL] | solubility [1, 6] [µg/mL] | solubility [1, 7] [µg/mL] | solubility [1, 8] [µg/mL] | solubility [1, 9] [µg/mL] | solubility [1, 10] [µg/mL] | solubility ([1]; Labrasol ALF, oil or lipid) [µg/mL] | solubility [1, 11] [µg/mL] | solubility [1, 12] [µg/mL] | solubility [1, 13] [µg/mL] | solubility [1, 14] [µg/mL] | solubility [1, 15] [µg/mL] | solubility [1, 16] [µg/mL] | solubility [1, 17] [µg/mL] | solubility [1, 18] [µg/mL] | solubility [1, 19] [µg/mL] | solubility [1, 20] [µg/mL] | solubility [1, 21] [µg/mL] | marginal increase in solubility [2] [%] | degradation [3, 22] | other results
C[C@@](Cc1ccc(O)c(O)c1)(NN)C(=O)O [Carbidopa, (2S)-3-(3,4-dihydroxyphenyl)-2-hydrazinyl-2-methylpropanoic acid] | 11800 (≈ 52.2 mM) | 12900 (≈ 57 mM) | 2800 (≈ 12.4 mM) | 3100 (≈ 13.7 mM) | 70 (≈ 0.309 mM) | 1500 (≈ 6.63 mM) | 12800 (≈ 56.6 mM) | 1500 (≈ 6.63 mM) | 1400 (≈ 6.19 mM) | 15000 (≈ 66.3 mM) | 3100 (≈ 13.7 mM) | 1400 (≈ 6.19 mM) | 600 (≈ 2.65 mM) | < 10000 | < 10000 | 1500 (≈ 6.63 mM) | 2100 (≈ 9.28 mM) | 4700 (≈ 20.8 mM) | -40 | about 88% | degradation [3, 23]: more than 20%; degradation [3, 24]: about 30%; degradation [3, 25]: 90%; degradation [3, 26]: did not influence; stability in solution ([3]; stress studies, overall): very unstable in solution and is quickly degraded; solubility ([4]; 3N HCI): 100 - 1000 ^(3) mg/mL; solubility ([4]; Acetone): < 0.1 ^(3) mg/mL; solubility ([4]; Chloroform): < 0.1 ^(2) mg/mL; solubility ([4]; Ethanol): 0.1 - 1 ^(2) mg/mL; solubility ([4]; Ether): < 0.1 ^(3) mg/mL; solubility ([4]; Methanol): 1 - 10 ^(3) mg/mL; solubility ([4]; Methylene chloride): < 0.1 ^(3) mg/mL; solubility ([4]; Water): 1 - 10 ^(2) mg/mL
N[C@@H](Cc1c[nH]c2ccc(O)cc12)C(=O)O [5-HTP, (2S)-2-amino-3-(5-hydroxy-1H-indol-3-yl)propanoic acid] | 29400 (≈ 133 mM) | 12400 (≈ 56.3 mM) | 13500 (≈ 61.3 mM) | 17000 (≈ 77.2 mM) | 5100 (≈ 23.2 mM) | 9500 (≈ 43.1 mM) | 4800 (≈ 21.8 mM) | 2300 (≈ 10.4 mM) | 9400 (≈ 42.7 mM) | 35400 (≈ 161 mM) | 14500 (≈ 65.8 mM) | 9000 (≈ 40.9 mM) | 13700 (≈ 62.2 mM) | < 10000 | < 10000 | 8400 (≈ 38.1 mM) | 8900 (≈ 40.4 mM) | 9300 (≈ 42.2 mM) | -20 | about 15% | degradation ([3]; mix solution of 5-HTP and carbidopa, all stress conditions): mainly light and acidic stress influenced the degradation; degradation [3, 23]: not sensitive; degradation [3, 24]: about 15%; degradation [3, 25]: not sensitive; degradation [3, 26]: not sensitive; solubility ([4]; Water): 1 - 10^(1) mg/mL
